Results: US20240270821A1, “GIP/GLP1/GCG TRI-RECEPTOR AGONISTS AND USES THEREOF” (priority 2023, published 2024)
Starred links: 1 amine or outer side, 2 acyl side, 3 side chain; linkers in the order of their positions; H or OH if unused. Non-standard residues stand in square brackets, D forms with d. Residues, ends and D or L forms follow the SMILES beside them. Groups on a side chain read outwards from the residue. *: point of attachment. Phe(4-NO2) = N[C@@H](Cc1ccc([N+](=O)[O-])cc1)C(=O)O; C18 diacid = O=C(O)CCCCCCCCCCCCCCCCC(=O)*; αMePhe(2-F) = C[C@](N)(Cc1ccccc1F)C(=O)O; γGlu = O=C(O)[C@H](CCC(=O)[*:2])N[*:1]; 4Pal = N[C@@H](Cc1ccncc1)C(=O)O; αMeL = CC(C)C[C@](C)(N)C(=O)O; αMeS = C[C@](N)(CO)C(=O)O; Orn = NCCC[C@H](N)C(=O)O; AEEA = NCCOCCOCC(=O)O; Aib = CC(C)(N)C(=O)O

What was measured:
Assay type in all cases: cell-based
hGIPR [1] = biological target: T1, hGIPR (Homo sapiens, UniProt P48546); assay: Functional cAMP activity in the presence of 1% HSA; conditions: read-out: cAMP Rel EC50, hGIPR
T1 sequence (P48546 22-466): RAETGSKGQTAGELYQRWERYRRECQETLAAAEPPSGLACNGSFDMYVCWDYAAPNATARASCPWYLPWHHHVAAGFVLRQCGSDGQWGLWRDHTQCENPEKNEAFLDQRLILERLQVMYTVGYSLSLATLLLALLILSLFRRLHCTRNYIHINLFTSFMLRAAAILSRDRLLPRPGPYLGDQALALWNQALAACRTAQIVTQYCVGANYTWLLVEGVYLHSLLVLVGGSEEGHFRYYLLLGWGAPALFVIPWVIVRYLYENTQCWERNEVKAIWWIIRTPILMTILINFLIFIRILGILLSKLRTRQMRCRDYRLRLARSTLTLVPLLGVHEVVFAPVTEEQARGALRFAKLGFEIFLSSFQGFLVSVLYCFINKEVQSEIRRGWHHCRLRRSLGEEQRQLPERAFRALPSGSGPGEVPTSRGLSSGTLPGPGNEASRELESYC

hGLP-1R [2] = biological target: T2, hGLP-1R (Homo sapiens, UniProt P43220); assay: Functional cAMP activity in the presence of 1% HSA; conditions: read-out: cAMP Rel EC50, hGLP-1R
T2 sequence (P43220 24-463): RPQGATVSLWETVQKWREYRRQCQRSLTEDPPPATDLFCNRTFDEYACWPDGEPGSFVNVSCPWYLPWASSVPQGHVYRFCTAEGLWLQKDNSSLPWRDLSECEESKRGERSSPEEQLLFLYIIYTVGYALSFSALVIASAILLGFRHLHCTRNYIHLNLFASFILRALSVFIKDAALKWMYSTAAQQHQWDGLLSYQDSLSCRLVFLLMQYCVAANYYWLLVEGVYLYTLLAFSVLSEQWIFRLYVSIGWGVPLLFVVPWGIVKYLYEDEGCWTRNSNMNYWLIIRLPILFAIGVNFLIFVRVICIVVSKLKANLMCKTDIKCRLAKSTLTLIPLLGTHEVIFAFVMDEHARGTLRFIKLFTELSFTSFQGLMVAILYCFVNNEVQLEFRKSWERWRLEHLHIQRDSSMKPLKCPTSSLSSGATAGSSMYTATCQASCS

human GcgR = human GcgR (Homo sapiens, UniProt P47871); assay: Functional cAMP activity in the presence of 1% HSA; conditions: read-out: cAMP Rel EC50, hGcgR
Sequence of human GcgR (P47871 26-477): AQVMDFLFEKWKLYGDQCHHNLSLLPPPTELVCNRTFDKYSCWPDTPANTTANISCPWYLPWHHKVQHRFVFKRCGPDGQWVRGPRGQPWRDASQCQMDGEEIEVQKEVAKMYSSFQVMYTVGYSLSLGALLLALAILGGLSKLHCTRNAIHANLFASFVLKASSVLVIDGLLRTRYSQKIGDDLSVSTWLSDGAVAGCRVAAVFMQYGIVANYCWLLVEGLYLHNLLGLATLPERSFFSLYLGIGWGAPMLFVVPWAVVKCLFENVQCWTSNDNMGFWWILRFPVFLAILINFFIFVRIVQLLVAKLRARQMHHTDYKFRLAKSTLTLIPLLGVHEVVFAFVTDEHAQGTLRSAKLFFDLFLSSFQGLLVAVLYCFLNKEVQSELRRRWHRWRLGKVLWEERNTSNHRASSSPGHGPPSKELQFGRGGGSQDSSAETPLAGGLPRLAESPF

hGIPR [3] = biological target: T1, hGIPR; assay: Functional cAMP activation in the presence of 0.1% casein (no HSA); conditions: read-out: Relative cAMP EC50, hGIPR;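 as to Relative cAMP EC50, hGIPR: intracellular cAMP rise after 30 min at 37 °C read by HTRF against a standard curve, scaled between buffer alone (0%) and top control ligand concentration (100%), four-parameter fit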;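 as to Relative cAMP EC50, hGLP-1R: intracellular cAMP rise after 30 min at 37 °C read by HTRF, normalized between buffer only (0%) and maximal control ligand (100%), four-parameter variable-slope fit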;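 as to Relative cAMP EC50, hGcgR: intracellular cAMP rise after 30 min at 37 °C, read by HTRF against a cAMP standard curve, scaled from buffer only (0%) to maximal control ligand response (100%)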
hGLP-1R [4] = biological target: T2, hGLP-1R; assay: as above; conditions: read-out: Relative cAMP EC50, hGLP-1R
hGcgR = hGcgR (Homo sapiens, UniProt P47871); assay: as above; conditions: read-out: Relative cAMP EC50, hGcgR;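 also: intracellular cAMP rise after 30 min at 37 °C, read by HTRF against a cAMP standard curve, scaled from buffer only (0%) to maximal control ligand response (100%)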
Sequence of hGcgR (P47871 26-477): as above

Compound | EC50 (hGIPR [1]) [nM] | EC50 (hGLP-1R [2]) [nM] | EC50 (human GcgR) [nM] | EC50 (hGIPR [3]) [nM] | EC50 (hGLP-1R [4]) [nM] | EC50 (hGcgR) [nM]
CC[C@H](C)[C@H](NC(=O)[C@H](Cc1ccccc1)NC(=O)[C@H](C)NC(=O)C(C)(C)NC(=O)[C@H](CCC(N)=O)NC(=O)[C@H](C)NC(=O)[C@H](CCCCNC(=O)COCCOCCNC(=O)CC[C@H](NC(=O)CCCCCCCCCCCCCCCCC(=O)O)C(=O)O)NC(=O)[C@H](CCCN)NC(=O)[C@H](CC(=O)O)NC(=O)[C@H](CC(C)C)NC(=O)[C@](C)(CC(C)C)NC(=O)[C@@H](NC(=O)[C@](C)(CO)NC(=O)[C@H](Cc1ccncc1)NC(=O)[C@H](CC(=O)O)NC(=O)[C@H](CO)NC(=O)[C@@H](NC(=O)[C@](C)(Cc1ccccc1F)NC(=O)[C@@H](NC(=O)CNC(=O)[C@H](CCC(N)=O)NC(=O)C(C)(C)NC(=O)[C@@H](N)Cc1c[nH]cn1)[C@@H](C)O)[C@@H](C)O)[C@@H](C)CC)C(=O)N[C@H](CCC(=O)O)C(=O)N[C@@H](Cc1ccc(O)cc1)C(=O)N[C@@H](CC(C)C)C(=O)N[C@@H](CC(C)C)C(=O)N[C@@H](CCC(=O)O)C(=O)NCC(=O)NCC(=O)N1CCC[C@H]1C(=O)N[C@@H](CO)C(=O)N[C@@H](CO)C(=O)NCC(=O)N[C@@H](CCC(=O)O)C(=O)N1CCC[C@H]1C(=O)N[C@@H](CCC(=O)O)C(=O)N1CCC[C@H]1C(=O)N[C@@H](CCC(=O)O)C(N)=O [Example 479] (H-H[Aib]QGT[αMePhe(2-F)]TSD[4Pal][αMeS]I[αMeL]LD[Orn]K([AEEA-γGlu-C18 diacid])AQ[Aib]AFI[dE]YLLEGGPSSGEPEPE-NH2) | 7.11 | 23.5 | 432 | 0.0905 | 0.314 | 5.98
CC[C@H](C)[C@H](NC(=O)[C@H](Cc1ccccc1)NC(=O)[C@H](C)NC(=O)C(C)(C)NC(=O)[C@H](CCC(N)=O)NC(=O)[C@H](C)NC(=O)[C@H](CCCCNC(=O)COCCOCCNC(=O)CC[C@H](NC(=O)CCCCCCCCCCCCCCCCC(=O)O)C(=O)O)NC(=O)[C@H](CCCN)NC(=O)[C@H](CC(=O)O)NC(=O)[C@H](CC(C)C)NC(=O)[C@](C)(CC(C)C)NC(=O)[C@@H](NC(=O)[C@H](CO)NC(=O)[C@H](Cc1ccncc1)NC(=O)[C@H](CC(=O)O)NC(=O)[C@H](CO)NC(=O)[C@@H](NC(=O)[C@](C)(Cc1ccccc1F)NC(=O)[C@@H](NC(=O)CNC(=O)[C@H](CCC(N)=O)NC(=O)C(C)(C)NC(=O)[C@@H](N)Cc1ccc(O)cc1)[C@@H](C)O)[C@@H](C)O)[C@@H](C)CC)C(=O)N[C@@H](CCC(=O)O)C(=O)N[C@@H](Cc1ccc(O)cc1)C(=O)N[C@@H](CC(C)C)C(=O)N[C@@H](CCC(=O)O)C(=O)N[C@@H](CCC(=O)O)C(=O)NCC(=O)NCC(=O)N1CCC[C@H]1C(=O)N[C@@H](CO)C(=O)N[C@@H](CO)C(=O)NCC(=O)N[C@@H](CCC(=O)O)C(=O)N1CCC[C@H]1C(=O)N1CCC[C@H]1C(=O)N1CCC[C@H]1C(=O)N[C@@H](CO)C(N)=O [Example 486] (H-Y[Aib]QGT[αMePhe(2-F)]TSD[4Pal]SI[αMeL]LD[Orn]K([AEEA-γGlu-C18 diacid])AQ[Aib]AFIEYLEEGGPSSGEPPPS-NH2) | 2.57 | 35 | 647 | 0.0262 | 0.375 | 4.43
CC[C@H](C)[C@H](NC(=O)[C@H](Cc1ccccc1)NC(=O)[C@H](C)NC(=O)C(C)(C)NC(=O)[C@H](CCC(N)=O)NC(=O)[C@H](C)NC(=O)[C@H](CCCCNC(=O)COCCOCCNC(=O)CC[C@H](NC(=O)CCCCCCCCCCCCCCCCC(=O)O)C(=O)O)NC(=O)[C@H](CCCCN)NC(=O)[C@H](CC(=O)O)NC(=O)[C@H](CC(C)C)NC(=O)[C@](C)(CC(C)C)NC(=O)[C@@H](NC(=O)[C@H](CO)NC(=O)[C@H](Cc1ccncc1)NC(=O)[C@H](CC(=O)O)NC(=O)[C@H](CO)NC(=O)[C@@H](NC(=O)[C@](C)(Cc1ccccc1F)NC(=O)[C@@H](NC(=O)CNC(=O)[C@H](CCC(N)=O)NC(=O)C(C)(C)NC(=O)[C@@H](N)Cc1ccc(O)cc1)[C@@H](C)O)[C@@H](C)O)[C@@H](C)CC)C(=O)N[C@@H](CCC(=O)O)C(=O)N[C@@H](Cc1ccc(O)cc1)C(=O)N[C@@H](CC(C)C)C(=O)N[C@@H](CCC(=O)O)C(=O)N[C@@H](CCC(=O)O)C(=O)NCC(=O)NCC(=O)N1CCC[C@H]1C(=O)N[C@@H](CO)C(=O)N[C@@H](CO)C(=O)NCC(=O)N[C@@H](CCC(=O)O)C(=O)N1CCC[C@H]1C(=O)N1CCC[C@H]1C(=O)N1CCC[C@H]1C(=O)N[C@@H](CCC(=O)O)C(N)=O [Example 487] (H-Y[Aib]QGT[αMePhe(2-F)]TSD[4Pal]SI[αMeL]LDKK([AEEA-γGlu-C18 diacid])AQ[Aib]AFIEYLEEGGPSSGEPPPE-NH2) | 2.26 | 27.7 | 477 | 0.0286 | 0.639 | 5.36
CC[C@H](C)[C@H](NC(=O)[C@H](Cc1ccccc1)NC(=O)[C@H](C)NC(=O)C(C)(C)NC(=O)[C@H](CCC(N)=O)NC(=O)[C@H](C)NC(=O)[C@H](CCCCNC(=O)COCCOCCNC(=O)CC[C@H](NC(=O)CCCCCCCCCCCCCCCCC(=O)O)C(=O)O)NC(=O)[C@H](CCCCN)NC(=O)[C@H](CC(=O)O)NC(=O)[C@H](CC(C)C)NC(=O)[C@](C)(CC(C)C)NC(=O)[C@@H](NC(=O)[C@H](CO)NC(=O)[C@H](Cc1ccc([N+](=O)[O-])cc1)NC(=O)[C@H](CC(=O)O)NC(=O)[C@H](CO)NC(=O)[C@@H](NC(=O)[C@](C)(Cc1ccccc1F)NC(=O)[C@@H](NC(=O)CNC(=O)[C@H](CCC(N)=O)NC(=O)C(C)(C)NC(=O)[C@@H](N)Cc1ccc(O)cc1)[C@@H](C)O)[C@@H](C)O)[C@@H](C)CC)C(=O)N[C@@H](CCC(=O)O)C(=O)N[C@@H](Cc1ccc(O)cc1)C(=O)N[C@@H](CC(C)C)C(=O)N[C@@H](CCC(=O)O)C(=O)N[C@@H](CCC(=O)O)C(=O)NCC(=O)NCC(=O)N1CCC[C@H]1C(=O)N[C@@H](CO)C(=O)N[C@@H](CO)C(=O)NCC(=O)N[C@@H](C)C(=O)N1CCC[C@H]1C(=O)N1CCC[C@H]1C(=O)N1CCC[C@H]1C(=O)N[C@@H](CCC(=O)O)C(N)=O [Example 495] (H-Y[Aib]QGT[αMePhe(2-F)]TSD[Phe(4-NO2)]SI[αMeL]LDKK([AEEA-γGlu-C18 diacid])AQ[Aib]AFIEYLEEGGPSSGAPPPE-NH2) | 5.74 | 53.8 | 205 | 0.0361 | 0.274 | 1.75
